The target in test [1] is T1, P301L tau (Homo sapiens, UniProt P10636, P618L).
T1 construct: expressed in transfected cells
In words: Tau degradation in doxycycline-induced ChoK1-Tau P301L clone D1 cells. It is filed as cell-based. As to the method:
FIGS. 2A, 2B, and 2C. Tau targeting bifunctional molecules are potent P301L tau degraders in vitro, which depends upon both binding to the tau binding moiety and the E3 ligase binding moiety (ULM). (2A) Tau expression was induced by addition (+) of doxycycline (1 μg/ml) to ChoK1-Tau P301L clone D1 for 24 hours followed by a 24 hour doxycycline washout period where only bifunctional molecule was present.

Test [2] concerns seeding competent tau species (MC1-positive seeded conformational tau) in ChoK1-Tau P301L cells. The experiment in a line: Tg2508 ex-vivo seeding of P301L CHO cells, MC1 high content image analysis. It is filed as cell-based, Tg2508 mice. Conditions: 24 hours. The method, then: FIGS. 4A, 4B, and 4C. […] Briefly, ChoK1-Tau P301L cells were treated with K18 tau preformed fibrils (PFFs) or extracts from Tg2508 brain samples. Seeded conformational tau species were detected by MC1 antibody positivity and quantified as MC1 spot average intensity per cell on the Image Express high content platform.

The target of test [3] is T2, Tau P301L (Homo sapiens, UniProt P10636, P618L).
T2 construct: expressed in transfected cells
In words: In vitro tau degradation assay in CHOK1 Tau P301L cells (sarkosyl insoluble tau, WES). It is filed as cell-based. An outline of the steps:
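T-Rex CHOK1 clone D1 with doxycycline-inducible (1 μg/ml) Tau P301L treated 48 h with compound at 1 μM, doxycycline removed for the final 24 h. Sarkosyl-insoluble tau quantified by WES capillary electrophoresis with Tau1 antibody, expressed relative to DMSO doxycycline control and binned as ≤50% or >50% remaining.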

Test [4] has as its target T3, seeded conformational tau (MC1) (Homo sapiens, UniProt P10636, P618L).
T3 construct: tissue Taconic; host or cells: cortex / hippocampus of Tg2508 transgenic mice, sarkosyl-insoluble fraction or brain extract
The experiment in a line: Tg2508 ex-vivo tau seeding assay in ChoK1-Tau P301L cells (MC1 high content imaging). It is filed as cell-based, mice. Conditions: 24 hours, MC1 spot intensity in ChoK1-Tau P301L cells. As to the method:
FIGS. 4A, 4B, and 4C. Briefly, ChoK1-Tau P301L cells were treated with K18 tau preformed fibrils (PFFs) or extracts from Tg2508 brain samples (as described in Materials and Methods; PFF generation modified from Holmes et al. PNAS. 2014. Proteopathic tau seeding predicts tauopathy in vivo. Oct. 111 (41) E4376-85). Seeded conformational tau species are detected by MC1 antibody positivity and quantified as MC1 spot average intensity per cell on the Image Express™ high content platform.
In vitro tau Seeding Assay for FIGS. 4A, 4B, and 4C. Tau P301L T-Rex CHO Cells were plated on BioCoat Collagen 96 well microplates that were also poly-D-lysine coated. Media was removed, cells were washed with DPBS, trypsinized and plated at 50,000 cells per mL with Doxycycline […] and no doxycycline control for 24 hours. […]

Test [5] concerns the target T4, pathologic tau (Homo sapiens, UniProt P10636, P618L).
T4 construct: tissue Taconic; host or cells: cortex / hippocampus of Tg2508 transgenic mice, sarkosyl-insoluble fraction or brain extract
The experiment in a line: Pathologic tau in Tg2508 brain after intravenous dosing, measured by Wes capillary gel electrophoresis. It is filed as in vivo, Tg2508 tauopathy mice. Conditions: 15, 3, 1 or 0.3 mpk intravenous, 24 hours post dose, Tg2508 hippocampi. As to the method:
(§1) FIGS. 3A and 3B. Exemplary bifunctional compounds degrade greater than 95% of pathologic tau in Tg2508 brain following parenteral administration in vivo. Tg2508 tauopathy mice were dosed (12 animals per group) with either 15 mpk exemplary compound 82 or 30 mpk exemplary compound 382 or vehicle intravenously. Twenty-four hours post dose, the animals were sacrificed, and cortical brain samples were analyzed for pathologic tau by Wes capillary gel electrophoresis. FIG. 3A is a graphical representation of the averaged analysis of pathologic tau shown for each animal tested comparing lanes from the vehicle control to either exemplary compound 82 or exemplary compound 382 as indicated in FIG. 3B. Greater than 95% reduction of pathologic tau was observed following treatment of the Tg2508 animals with either exemplary compound 82 or exemplary compound 382.
FIG. 5. […] Tg2508 animals were dosed with either 15, 3, 1 or 0.3 mpk of bifunctional compound 382 intravenously, as described in materials and methods. Hippocampal extracts were analyzed for either pathologic tau levels by Wes or bifunctional compound levels at each given dose as shown.

Test [6] addresses T4, pathologic tau. In words: In vivo tau degradation assay in Tg2508 tauopathy mice (sarkosyl insoluble tau, Wes). Conditions: Tg2508 mice, 15, 3, 1 or 0.3 mpk parenterally, 24 hours post dose. The method, then:
as §1, with “3B.” for “3B. Exemplary bifunctional compounds degrade greater than 95% of pathologic tau in Tg2508 brain following parenteral administration in vivo.”, “parenterally, as described below (Lewis et al., 2000).” for “intravenously.”, “sacrificed” for “sacrificed,”
FIG. 5. Tg2508 animals were dosed with either 15, 3, 1 or 0.3 mpk of bifunctional compound exemplary compound 382 parenterally, as described in materials and methods. Hippocampal extracts were analyzed for either pathologic tau levels by Wes or bifunctional compound levels at each given dose as shown.
In vivo tau Degradation Assay for FIGS. 3A, 3B and 5. […] Hetero-bifunctional degrader molecule concentrations were determined using standand liquid chromatography and mass spectroscopy methodologies (Drumetix).

Where [7] appears, read: 10-fold molar excess pomalidomide.
Where [8] appears, read: similar competition (10-fold molar excess) with flortaucipir.
[9] abbreviates: single parenteral treatment 15 mpk.
[10] abbreviates: single parenteral treatment 30 mpk.

The structures appear in SMILES notation.

These results are taken from patent US11912699B2, “Tau-protein targeting compounds and associated” (Arvinas Operations, Inc., priority 2019, dated 2024).

As usually defined, the DC50 is the concentration at which degradation of the target reaches its halfway point.

T1 sequence (P10636 1-441 isoform P10636-8 P301L): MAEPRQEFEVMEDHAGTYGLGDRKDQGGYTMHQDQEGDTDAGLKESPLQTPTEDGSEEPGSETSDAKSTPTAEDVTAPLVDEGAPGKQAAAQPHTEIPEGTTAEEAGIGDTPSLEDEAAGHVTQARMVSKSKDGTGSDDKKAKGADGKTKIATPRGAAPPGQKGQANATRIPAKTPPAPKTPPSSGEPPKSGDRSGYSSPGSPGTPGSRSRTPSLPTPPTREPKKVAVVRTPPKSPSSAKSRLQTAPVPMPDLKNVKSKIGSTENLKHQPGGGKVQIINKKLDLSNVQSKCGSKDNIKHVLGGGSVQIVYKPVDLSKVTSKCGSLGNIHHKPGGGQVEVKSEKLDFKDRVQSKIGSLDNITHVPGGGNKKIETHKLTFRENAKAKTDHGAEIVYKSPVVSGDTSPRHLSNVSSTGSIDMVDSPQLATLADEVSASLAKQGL
T2 sequence (P10636 1-441 isoform P10636-8 P301L): as above
T3 sequence (P10636 1-383 isoform P10636-6 P243L): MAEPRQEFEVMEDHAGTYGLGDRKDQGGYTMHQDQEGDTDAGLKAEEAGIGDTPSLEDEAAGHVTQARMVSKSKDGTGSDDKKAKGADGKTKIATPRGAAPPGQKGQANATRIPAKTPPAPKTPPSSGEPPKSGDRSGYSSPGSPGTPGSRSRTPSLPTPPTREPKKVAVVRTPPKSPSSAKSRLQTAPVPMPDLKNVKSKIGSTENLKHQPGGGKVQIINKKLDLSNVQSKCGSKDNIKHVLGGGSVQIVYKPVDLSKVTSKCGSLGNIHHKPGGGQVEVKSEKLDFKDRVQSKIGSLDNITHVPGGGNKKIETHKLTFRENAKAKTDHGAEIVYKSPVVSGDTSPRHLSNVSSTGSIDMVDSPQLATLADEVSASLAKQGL
T4 sequence (P10636 1-383 isoform P10636-6 P243L): as above

In the case of `Cn1c2ccncc2c2ccc(-c3ccc(O[C@H]4C[C@H](OC5CCN(CCCCCOc6ccc7c(c6)C(=O)N(C6CCC(=O)NC6=O)C7=O)CC5)C4)nc3)cc21` (stereo partly drawn) [Compound 82], in test [1] (250 nM, 125 nM or 50 nM, ChoK1-Tau P301L clone D1, vs 0.1% DMSO), the degradation of tau entry was “concentration-dependent degradation of tau”. Also, the “tau degradation under competition with E3 ligase ligand pomalidomide” value in test [1] (setting [7]) is “completely inhibited”. In addition, the DC50 in test [1] (ChoK1-Tau P301L clone D1, 24 h doxycycline (1 μg/ml) induction, then 24 h washout with only compound present, vs 0.1% DMSO) was less than 50 nM; in test [3] (ChoK1-Tau P301L clone D1, doxycycline 1 μg/ml, 250, 125, 50 nM), less than 50 nM. In addition, in test [1] (setting [8]), the “tau degradation under competition with tau warhead ligand flortaucipir” value is “Partial inhibition”. Further, the “seeding competent tau species in Tg2508 cortical brain extracts (MC1 spot average intensity per cell)” value in test [2] (setting [9]) is on record as “effectively degraded”. For the same compound, the “tau degradation under competition with E3 ligase ligand” value in test [3] (setting [7]) is “completely inhibited”. Moreover, in test [3] (ChoK1-Tau P301L clone D1, 250 nM, 125 nM or 50 nM), the “degradation of tau compared to 0.1% DMSO control” value is “concentration-dependent degradation of tau”. Further, the “tau degradation under competition with tau warhead ligand” value in test [3] (setting [8]) was “Partial inhibition”. For the same compound, the “seeding competent tau species in Tg2508 cortical brain extracts” value in test [4] (setting [9]) is listed as “effectively degraded”.
As to `Cn1c2ccncc2c2ccc(-c3ccc(N4CC(OC5CCN(CCCCCOc6ccc7c(c6)C(=O)N(C6CCC(=O)NC6=O)C7=O)CC5)C4)nc3)cc21` (stereo not drawn) [Compound 382, 2-(2,6-dioxopiperidin-3-yl)-5-((5-(4-((1-(5-(5-methyl-5H-pyrido[4,3-b]indol-7-yl)pyridin-2-yl)azetidin-3-yl)oxy)piperidin-1-yl)pentyl)oxy) isoindoline-1,3-dione], the “pathologic tau levels in hippocampal extracts” value in test [5] is reported as “A clear dose-response relationship is demonstrated”. Moreover, the “seeding competent tau species in Tg2508 cortical brain extracts (MC1 spot average intensity per cell)” value in test [2] (setting [10]) is “effectively degraded”. Besides, the remaining activity at 1 µM in test [3] (CHO-K1, remaining tau protein in sarkosyl insoluble pellet, CHOK1 Tau P301L cells treated 48 hours with test compound at 1 μM, doxycycline removed for the last 24 hours, relative to DMSO doxycycline control, read-out: Tau Protein Degradation effect at 1 μM) was less than 50%. In addition, the “concentration of tau protein in hippocampi” value in test [6] is given as “dose-dependently reduced”. For the same compound, the “seeding competent tau species in Tg2508 cortical brain extracts” value in test [4] (setting [10]) is “effectively degraded”.
